Test results from patent US9950989B2, “Cyclic hydrocarbon compound” (TOA EIYO LTD., priority 2014, dated 2018).
Structures can show the parent of a compound that is named as a salt.

Assays:
biochemical = assay: biochemical; parameters: species or system Influenza A Virus H1N1
Male SD rats = assay: Atrial effective refractory period (AERP) prolonging effect, atrium electrostimulation model; type: in vivo, rat; settings: anesthetized male SD rats, drug 10 mg/kg/10 min, basic cycle 120 ms, three examples per group
[1] = test system: atrial fibrillation model; settings: described in Patent Document 1 (JP 2012-236814 A); cited from earlier work

SMILES	IC50 (biochemical) [µM]	ΔAERP prolongation (Male SD rats) [ms]	atrial fibrillation suppression effect [1]
CCC(CC)O[C@@H]1C=C(C(=O)c2cccs2)C[C@H](N)[C@H]1NC(C)=O [Example 1, N-[(1R,2R,6S)-6-amino-2-(1-ethylpropoxy)-4-(thiophene-2-carbonyl)-3-cyclohexen-1-yl]acetamide]	71.7	40.0	–
CCC(CC)O[C@@H]1C=C(C(=O)c2ccc(C)o2)C[C@H](N)[C@H]1NC(C)=O [Example 3, N-[(1R,2R,6S)-6-amino-2-(1-ethylpropoxy)-4-(5-methylfuran-2-carbonyl)-3-cyclohexen-1-yl]acetamide]	–	14.5	–
CCC(CC)O[C@@H]1C=C(C(=O)c2ccc(C)s2)C[C@H](N)[C@H]1NC(C)=O [Example 4, N-[(1R,2R,6S)-6-amino-2-(1-ethylpropoxy)-4-(5-methylthiophene-2-carbonyl)-3-cyclohexen-1-yl]acetamide]	66.3	–	–
CCC(CC)O[C@@H]1C=C(C(=O)c2ccc(F)cc2)C[C@H](N)[C@H]1NC(C)=O [Example 5, N-[(1R,2R,6S)-6-amino-2-(1-ethylpropoxy)-4-(4-fluorobenzoyl)-3-cyclohexen-1-yl]acetamide]	–	22.0	–
CCC(CC)O[C@@H]1C=C(C(=O)c2ccccc2)C[C@H](N)[C@H]1NC(C)=O.Cl [Example 6, N-[(1R,2R,6S)-6-amino-4-benzoyl-2-(1-ethylpropoxy)-3-cyclohexen-1-yl]acetamide hydrochloride]	86	35.7	–
CCC(CC)O[C@@H]1C=C(C(=O)Cc2ccccc2)C[C@H](N)[C@H]1NC(C)=O [Example 7, N-[(1R,2R,6S)-6-amino-2-(1-ethylpropoxy)-4-phenylacetyl-3-cyclohexen-1-yl]acetamide]	–	22.0	–
CCC(CC)O[C@@H]1C=C(C(=O)C(C)(C)C)C[C@H](N)[C@H]1NC(C)=O [Example 10, N-[(1R,2R,6S)-6-amino-4-(2,2-dimethylpropionyl)-2-(1-ethylpropoxy)-3-cyclohexen-1-yl]acetamide]	–	16.0	–
CCCCC(=O)C1=C[C@@H](OC(CC)CC)[C@H](NC(C)=O)[C@@H](N)C1.Cl [Example 12, N-[(1R,2R,6S)-6-amino-2-(1-ethylpropoxy)-4-pentanoyl-3-cyclohexen-1-yl]acetamide hydrochloride]	47.3	23.0	–
CCC(CC)O[C@@H]1C=C(C(=O)c2ccccc2)C[C@H](N)[C@H]1NC(=O)c1ccccc1 [Example 16, N-[(1R,2R,6S)-6-amino-4-benzoyl-2-(1-ethylpropoxy)-3-cyclohexen-1-yl]benzamide]	–	18.7	–
CCC(CC)O[C@@H]1C=C(C(=O)c2ccccc2)C[C@H](N)[C@H]1NC(=O)C(C)(C)C [Example 17, N-[(1R,2R,6S)-6-amino-4-benzoyl-2-(1-ethylpropoxy)-3-cyclohexen-1-yl]-2,2-dimethylpropionamide]	> 300	39.3	–
CCC(CC)O[C@@H]1C=C(C(=O)c2ccccc2)C[C@H](NC(C)=O)[C@H]1N [Example 18, N-[(1S,5R,6R)-6-amino-3-benzoyl-5-(1-ethylpropoxy)-3-cyclohexen-1-yl]acetamide]	> 300	24.0	–
CCC(CC)O[C@@H]1C=C(C(O)c2ccccc2)C[C@H](N)[C@H]1NC(C)=O (stereo partly drawn) [Example 19, N-[(1R,2R,6S)-6-amino-2-(1-ethylpropoxy)-4-(hydroxyphenylmethyl)-3-cyclohexen-1-yl]acetamide]	87.3	–	–
CCC(CC)O[C@@H]1C=C(C(=O)c2cccs2)C[C@H](NC(C)=O)[C@H]1N [Example 21, N-[(1S,5R,6R)-6-amino-5-(1-ethylpropoxy)-3-(thiophene-2-carbonyl)-3-cyclohexen-1-yl]acetamide]	> 300	29.5	–
CCOCC1=C[C@@H](OC(CC)CC)[C@H](NC(C)=O)[C@@H](N)C1 [Example 23, N-[(1R,2R,6S)-6-amino-4-ethoxymethyl-2-(1-ethylpropoxy)-3-cyclohexen-1-yl]acetamide]	80.1	30.0	–
CCC(CC)O[C@@H]1CC(C(O)c2ccccc2)C[C@H](N)[C@H]1NC(C)=O (stereo partly drawn) [Example 24, N-[(1R,2S,6R)-2-amino-6-(1-ethylpropoxy)-4-(hydroxyphenylmethyl)cyclohexyl]acetamide]	> 300	20.5	–
CCC(CC)O[C@@H]1C=C(C(=O)c2cccs2)C[C@H](N)[C@H]1NC(=O)CC(C)C [Example 25, N-[(1R,2R,6S)-6-amino-2-(1-ethylpropoxy)-4-(thiophene-2-carbonyl)-3-cyclohexen-1-yl]-3-methylbutyramide]	–	37.7	–
CCN[C@@H]1[C@@H](N)CC(C(=O)c2cccs2)=C[C@H]1OC(CC)CC [Example 26, [(3R,4R,5S)-5-amino-4-ethylamino-3-(1-ethylpropoxy)cyclohexen-1-yl]thiophene-2-yl-methanone]	> 300	–	–
CCNC(=O)N[C@@H]1[C@@H](N)CC(C(=O)c2cccs2)=C[C@H]1OC(CC)CC [Example 27, [(1R,2R,6S)-6-amino-2-(1-ethylpropoxy)-4-(thiophene-2-carbonyl)cyclohexen-3-yl]-3-ethylurea]	> 300	56.0	–
CCCCCCC(=O)C1=C[C@@H](OC(CC)CC)[C@H](NC(C)=O)[C@@H](N)C1 [Example 28, N-[(1R,2R,6S)-6-amino-2-(1-ethylpropoxy)-4-heptanoyl-3-cyclohexen-1-yl]acetamide]	24.6	–	–
CCC(CC)O[C@@H]1C=C(C(=O)c2ccc(OC)s2)C[C@H](N)[C@H]1NC(C)=O [Example 30, N-[(1R,2R,6S)-6-amino-2-(1-ethylpropoxy)-4-(5-methoxythiophene-2-carbonyl)-3-cyclohexen-1-yl]acetamide hydrochloride]	10.6	–	–
CCOC(=O)C1=C[C@@H](OC(CC)CC)[C@H](NC(C)=O)[C@@H](N)C1 [Oseltamivir, reference compound]	–	15.7	has an atrial fibrillation suppression effect
